One assay deals with T. brucei. As to the kind of experiment: Growth inhibition assay of T. brucei cell cultures (Alamar Blue, 48 h). It is filed as cell-based. A general note: The colour change of resazurin is a common sign of viable cells or microbes.
The next assay deals with MetRS (T. brucei) (Trypanosoma brucei brucei, UniProt Q38C91). As to the kind of experiment: MetRS (T. brucei) ATP depletion assay using Kinase-Glo. It is filed as biochemical. On the technique in general: Kinase-Glo measures the ATP left after a reaction by luminescence.
Sequence of MetRS (T. brucei) (Q38C91 entry or part of it): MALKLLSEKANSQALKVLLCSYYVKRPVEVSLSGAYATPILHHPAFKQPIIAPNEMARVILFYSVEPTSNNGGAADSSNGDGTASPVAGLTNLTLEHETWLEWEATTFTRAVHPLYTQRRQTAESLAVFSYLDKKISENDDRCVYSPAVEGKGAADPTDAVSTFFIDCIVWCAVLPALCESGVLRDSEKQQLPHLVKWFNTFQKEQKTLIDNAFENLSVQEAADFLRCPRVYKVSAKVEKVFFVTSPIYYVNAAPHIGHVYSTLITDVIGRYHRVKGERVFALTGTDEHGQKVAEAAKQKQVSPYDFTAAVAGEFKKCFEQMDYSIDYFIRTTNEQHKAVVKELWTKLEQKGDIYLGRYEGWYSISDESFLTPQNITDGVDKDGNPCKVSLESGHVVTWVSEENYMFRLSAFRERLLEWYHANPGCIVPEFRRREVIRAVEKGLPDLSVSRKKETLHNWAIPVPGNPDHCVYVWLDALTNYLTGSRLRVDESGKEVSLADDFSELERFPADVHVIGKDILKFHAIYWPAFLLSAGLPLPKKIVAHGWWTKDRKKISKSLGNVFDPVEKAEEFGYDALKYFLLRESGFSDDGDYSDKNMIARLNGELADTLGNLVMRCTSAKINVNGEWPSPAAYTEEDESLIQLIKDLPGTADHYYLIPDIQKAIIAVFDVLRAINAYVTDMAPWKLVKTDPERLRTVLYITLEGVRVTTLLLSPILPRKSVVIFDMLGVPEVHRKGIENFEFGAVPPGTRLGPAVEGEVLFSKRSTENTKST
[1] abbreviates: Trypanosoma brucei; read-out: B) T. brucei EC50.

“And” between values parts separate entries of the source, which are not always exact repeats. Equal entries are not always repeated. Where two headings read alike, the source gives them in different places.

By EC50 is commonly meant the midpoint of the concentration-response curve. For orientation: IC50 means the midpoint of a concentration-inhibition curve. Turning to `O=C(Cc1cc(Cl)cc(Cl)c1)N1CCC[C@@H](c2nc3cc(Cl)ccc3[nH]2)C1` [Compound 1757, (R)-1-(3-(5-chloro-1H-benzo[d]imidazol-2-yl)piperidin-1-yl)-2-(3,5-dichlorophenyl)ethanone], the EC50 in the assay on T. brucei (setting [1]) was above 10 µM. Besides, the IC50 on MetRS (T. brucei) worked out at 3.5 µM.
For `O=C(Nc1cc(Cl)cc(Cl)c1)N1CCCC(c2nc3cc(Cl)ccc3[nH]2)C1` (stereo not drawn) [Compound 1759, 3-(5-chloro-1H-benzo[d]imidazol-2-yl)-N-(3,5-dichlorophenyl) piperidine-1-carboxamide] the same measures were above 10 µM and above 10 µM.
Consider `O=C1CN(C(=O)c2ccc3ccccc3c2)CCN1Cc1nc2ccccc2[nH]1` [Compound 1760, 1-((1H-benzo[d]imidazol-2-yl)methyl)-4-(2-naphthoyl)piperazin-2-one], for which, in the assay with T. brucei (setting [1]), the EC50 was above 10 µM. In addition, at MetRS (T. brucei), the IC50 is above 10 µM.
With `O=C(CCNc1ccc(Cl)cc1Cl)NCc1nc2ccccc2[nH]1` [Compound 1763, N-(1H-Benzoimidazol-2-ylmethyl)-3-(2,4-dichloro-phenylamino)-propionamide], the EC50 in the assay with T. brucei (setting [1]) stood at 12.7 µM. In addition, the IC50 against MetRS (T. brucei) amounted to 0.168 µM.
On to `O=C(Cc1nc2cc(Cl)cc(Cl)c2[nH]1)NCc1nc2ccccc2[nH]1` [Compound 1764, N-((1H-benzo[d]imidazol-2-yl)methyl)-2-(5,7-dichloro-1H-benzo[d]imidazol-2-yl)acetamide], for which the EC50 with T. brucei (setting [1]) was above 20 µM. This compound gave an IC50 on MetRS (T. brucei) above 10 µM.
The like results for `O=C(/C=C/Oc1ccc(Cl)cc1Cl)NNc1nc2ccccc2[nH]1` [Compound 1765, (2E)-N′-(1H-1,3-benzodiazol-2-yl)-3-(2,4-dichlorophcnoxy)prop-2-enehydrazide] were, in that order, above 20 µM and above 10 µM.
Turning to `CNCc1cc(Cl)cc(Cl)c1O/C=C/C(=O)NCc1nc2ccccc2[nH]1` [Compound 1779, (2E)-N-(1H-1,3-benzodiazol-2-ylmethyl)-3-{2,4-dichloro-6-[(methylamino)methyl]phenoxy}prop-2-enamide], in the assay on T. brucei (setting [1]), the EC50 is above 20 µM. Moreover, the IC50 at MetRS (T. brucei) was above 10 µM.
On to `Clc1cc(Cl)cc(CNCCc2nc3ccc(Cl)nc3[nH]2)c1` [Compound 1780, [2-(5-chloro-3H-imidazo[4,5-b]pyridin-2-yl)-ethyl]-(3,5-dichloro-benzyl)-amine], for which the figures for the EC50 in the assay on T. brucei (setting [1]) and in the assay on T. brucei (read-out: B) T. brucei EC50) were 1.16 µM and 1.06 µM, respectively. Besides, on MetRS (T. brucei), the IC50 was 0.067 µM and 0.036 µM.
On to `O=C(NCc1cc(Cl)cc(Cl)c1)N1CCCC(c2nc3nc(Cl)ccc3[nH]2)C1` (stereo not drawn) [Compound 1785, 3-(5-chloro-1H-imidazo[4,5-b]pyridin-2-yl)-N-(3,5-dichlorobenzyl) piperidine-1-carboxamide], for which, in the assay with T. brucei (setting [1]), the EC50 was above 20 µM. The same compound yielded a 50% inhibitory concentration (IC50) at MetRS (T. brucei) above 10 µM.
For `O=C(Cc1cc(Cl)cc(Cl)c1)NC1CCCC(c2nc3nc(Cl)ccc3[nH]2)C1` (stereo not drawn) [Compound 1786, N-(3-(5-chloro-1H-imidazo[4,5-b]pyridin-2-yl)cyclohexyl)-2-(3,5-dichlorophenyl)acetamide], in the assay with T. brucei (setting [1]), the EC50 is 5.67 µM. This compound gave an IC50 against MetRS (T. brucei) of 0.31 µM.
For `O=C(Cc1cc(Cl)cc(Cl)c1)N1CCOC(c2nc3nc(Cl)ccc3[nH]2)C1` (stereo not drawn) [Compound 1790, 1-(2-(5-chloro-1H-imidazo[4,5-b]pyridin-2-yl)morpholino)-2-(3,5-dichlorophenyl)ethanone] the same measures were 2.7 µM and 0.105 µM.
Consider `Nc1nc(Cl)ccc1NC(=O)C1CN(C(=O)Cc2cc(Cl)cc(Cl)c2)CCN1` (stereo not drawn) [Compound 1791, N-(2-amino-6-chloropyridin-3-yl)-4-(2-(3,5-dichlorophenyl)acetyl) piperazine-2-carboxamide], for which the EC50 in the assay with T. brucei (setting [1]) was above 20 µM. Also, on MetRS (T. brucei), the half-maximal inhibitory concentration (IC50) was determined as 8.48 µM.
The like results for `O=C1N[C@@H](Cc2ccc(Cl)cc2Cl)CN1Cc1nc2ccccc2[nH]1` [Compound 1792, 1-(1H-Benzoimidazol-2-ylmethyl)-4-(2,4-dichloro-benzyl)-imidazolidin-2-one] were, in that order, 2.68 µM and 0.15 µM.
`NC(Cc1nc2ccccc2[nH]1)C(=O)NCCc1ccc(Cl)cc1Cl` (stereo not drawn) [Compound 1795, N-(2,4-dichlorophenethyl)-2-amino-3-(1H-benzo[d]imidazol-2-yl)propanamide]: the concentration for a half-maximal effect (EC50) with T. brucei (setting [1]) amounted to 12.3 µM. On MetRS (T. brucei), this compound displayed an IC50 above 10 µM.
Take `Fc1ccc2[nH]c(C3CCCN(CCc4cc(Cl)cc(Cl)c4)C3)nc2n1` (stereo not drawn) [Compound 1798, 5-fluoro-2-(1-(3,5-dichlorophenethyl)piperidin-3-yl)-1H-imidazo[4,5-b]pyridine]: in the assay with T. brucei (setting [1]), the EC50 is 1.23 µM. Further, the IC50 against MetRS (T. brucei) is above 10 µM.
The like results for `Fc1ccc2[nH]c(C3CCCC(NCc4cc(Cl)cc(Cl)c4)C3)nc2n1` (stereo not drawn) [Compound 1800, N-(3,5-dichlorobenzyl)-3-(5-fluoro-1H-imidazo[4,5-b]pyridin-2-yl) cyclohexanamine] were, in that order, 0.961 µM and 0.663 µM.
As to `O=C(NCc1nc2ccccc2[nH]1)C(=O)NCc1ccc(Cl)cc1Cl` [Compound 1802, N1-((1H-benzo[d]imidazol-2-yl)methyl)-N2-(2,4-dichlorobenzyl)oxalamide], the EC50 in the assay on T. brucei (setting [1]) was above 20 µM. The compound further returned an IC50 against MetRS (T. brucei) of 4.29 µM.
On to `O=C(CC(=O)Nc1ccc(Cl)cc1Cl)NCc1nc2ccccc2[nH]1` [Compound 1803, N1-((1H-benzo[d]imidazol-2-yl)methyl)-N3-(2,4-dichlorophenyl)malonamide], for which, in the assay on T. brucei (setting [1]), the EC50 is above 20 µM. Moreover, the IC50 against MetRS (T. brucei) was above 10 µM.
On to `O=C(Cc1nc2ccc(Cl)cc2[nH]1)NCc1cc(Cl)cc(Cl)c1` [Compound 1804, N-(3,5-dichlorobenzyl)-2-(6-chloro-1H-benzo[d]imidazol-2-yl)acetamide], for which, in the assay on T. brucei (setting [1]), the EC50 is 15 µM. The IC50 against MetRS (T. brucei) came to 0.389 µM.
As for `C[C@H](Cc1nc2ccc(Cl)cc2[nH]1)NCc1cc(Cl)cc(Cl)c1` [Compound 1806, [(2R)-1-(6-chloro-1H-1,3-benzodiazol-2-yl)propan-2-yl][(3,5-dichlorophenyl)methyl]amine], the EC50 with T. brucei (setting [1]) was found to be 3.33 µM. For the same compound, the IC50 at MetRS (T. brucei) is 7.63 µM and 9.88 µM.
As for `N[C@@H](COc1ccc(Cl)cc1Cl)C(=O)NCc1nc2ccccc2[nH]1` [Compound 1807, (S)—N-((1H-benzo[d]imidazol-2-yl)methyl)-3-(2,4-dichlorophenoxy)-2-aminopropanamide], in the assay with T. brucei (setting [1]), the EC50 is 3.73 µM. Also, at MetRS (T. brucei), the IC50 worked out at 1.55 µM.
As for `CC(=O)N(Cc1ccc(Cl)cc1Cl)C1CCCC(c2nc3nc(Cl)ccc3[nH]2)C1` (stereo not drawn) [Compound 1810, N-(3-(5-chloro-1H-imidazo[4,5-b]pyridin-2-yl)cyclohexyl)-N-(2,4-dichlorobenzyl)acetamide], in the assay with T. brucei (setting [1]), the EC50 was 4.53 µM. 0.361 µM corresponded to half-maximal inhibition on MetRS (T. brucei) (IC50).
For the compound `Clc1cc(Cl)cc(CN2CCC[C@H](c3nc4cc(Cl)ccc4[nH]3)C2)c1` [Compound 1813, (S)-5-chloro-2-(1-(3,5-dichlorobenzyl)piperidin-3-yl)-1H-benzo[d]imidazole], the half-maximal effective concentration (EC50) with T. brucei (setting [1]) worked out at 1.38 µM. At MetRS (T. brucei), this compound displayed an IC50 of 0.747 µM.
For `Clc1cc(Cl)cc(CN2CCCC(Cc3nc4nc(Cl)ccc4[nH]3)C2)c1` (stereo not drawn) [Compound 1814, 5-chloro-2-((1-(3,5-dichlorobenzyl)piperidin-3-yl)methyl)-1H-imidazo[4,5-b]pyridine] the same measures were 7.21 µM and 3.4 µM.
The like results for `Clc1cc(Cl)cc(CNC2CCCC(c3nc4ccccc4[nH]3)C2)c1` (stereo not drawn) [Compound 1815, 3-(1H-benzo[d]imidazol-2-yl)-N-(3,5-dichlorobenzyl)cyclohexanamine] were, in that order, 4.09 µM and above 10 µM.
For the compound `CC(=O)N(Cc1cc(Cl)cc(Cl)c1)C1CCCC(c2nc3ccccc3[nH]2)C1` (stereo not drawn) [Compound 1816, N-(3-(1H-benzo[d]imidazol-2-yl)cyclohexyl)-N-(3,5-dichlorobenzyl) acetamide], the EC50 in the assay with T. brucei (setting [1]) is 8.79 µM. The IC50 against MetRS (T. brucei) is above 10 µM.
`Clc1cc(Cl)cc(CNC2CCCC(c3nc4ncccc4[nH]3)C2)c1` (stereo not drawn) [Compound 1817, N-(3,5-dichlorobenzyl)-3-(1H-imidazo[4,5-b]pyridin-2-yl) cyclohexanamine]: the EC50 with T. brucei (setting [1]) worked out at 2.06 µM. This compound also came in with an IC50 against MetRS (T. brucei) above 10 µM.
The like results for `CC(=O)N(Cc1cc(Cl)cc(Cl)c1)C1CCCC(c2nc3ncccc3[nH]2)C1` (stereo not drawn) [Compound 1818, N-(3-(1H-imidazo[4,5-b]pyridin-2-yl)cyclohexyl)-N-(3,5-dichlorobenzyl) acetamide] were, in that order, above 20 µM and 7.95 µM.
For `CC(Cc1nc2ccccc2[nH]1)NCc1cc(Cl)cc(Cl)c1` (stereo not drawn) [Compound 1819, [1-(1H-1,3-benzodiazol-2-yl)propan-2-yl][(3,5-dichlorophenyl)methyl]amine] the same measures were 8.9 µM and 7.23 µM.
The like results for `Cc1ccc2nc(CC(C)NCc3cc(Cl)cc(Cl)c3)[nH]c2c1` (stereo not drawn) [Compound 1820, [(3,5-dichlorophenyl)methyl][1-(6-methyl-1H-1,3-benzodiazol-2-yl)propan-2-yl]amine] were, in that order, 3.14 µM and 0.29 µM.
`CC(Cc1nc2ccc(Br)cc2[nH]1)NCc1cc(Cl)cc(Cl)c1` (stereo not drawn) [Compound 1821, [1-(6-bromo-1H-1,3-benzodiazol-2-yl)propan-2-yl][(3,5-dichlorophenyl)methyl]amine]: in the assay on T. brucei (setting [1]), the EC50 came out at 1.67 µM. The compound also registered an IC50 at MetRS (T. brucei) of 0.054 µM.
The like results for `CC(Cc1nc2cc(Cl)c(Cl)cc2[nH]1)NCc1cc(Cl)cc(Cl)c1` (stereo not drawn) [Compound 1822, [1-(5,6-dichloro-1H-1,3-benzodiazol-2-yl)propan-2-yl][(3,5-dichlorophenyl)methyl]amine] were, in that order, 3.57 µM and 1.49 µM.
In the case of `CC(Cc1nc2c(Cl)cc(Cl)cc2[nH]1)NCc1cc(Cl)cc(Cl)c1` (stereo not drawn) [Compound 1823, [1-(4,6-dichloro-1H-1,3-benzodiazol-2-yl)propan-2-yl][(3,5-dichlorophenyl)methyl]amine], in the assay with T. brucei (setting [1]), the EC50 stood at 4.56 µM. This compound also yielded an IC50 against MetRS (T. brucei) of 2.29 µM.
As to `CC(Cc1nc2cc(F)c(Cl)cc2[nH]1)NCc1cc(Cl)cc(Cl)c1` (stereo not drawn) [Compound 1824, [1-(6-chloro-5-fluoro-1H-1,3-benzodiazol-2-yl)propan-2-yl][(3,5-dichlorophenyl)methyl]amine], the EC50 with T. brucei (setting [1]) came to 2.24 µM. Besides, the IC50 against MetRS (T. brucei) was 0.16 µM.

The record behind these values is patent publication US10913736B2 (UNIVERSITY OF WASHINGTON, priority 2014, dated 2021).
